Test results taken from patent US10421769B2, “Anticancer property studies of chiral palladium N-heterocyclic carbene complexes and process for preparation thereof” (Indian Institute of Technology Bombay, priority 2017, dated 2019).
Where two headings read alike, the source gives them in different places. One block for each molecule: values may come before it.

Key:
HeLa cells [1] = assay: Sulforhodamine B assay, proliferation of HeLa cells; format: cell-based, human; conditions: HeLa cervical cancer cells, 24 h, SRB
Method: (§1) The present invention further provides a Sulforhodamine B assay method for investigating the anti-cancer efficacies of the compounds of the present Pd—NHC series on MCF-7, HeLa, A549, B16-F10 and EMT6/AR1 cancer cell lines and also for a comparative study on normal skin cell line L929 and normal epithelial breast cells MCF10A. The said Sulforhodamine B assay is conducted as per reported method (Skehan et al., J. Natl. Cancer Inst. 1990, 82, 1107).
(§2) Experiment: The anti-proliferative activity of the present palladium N-heterocyclic carbene complexes on two different cancer cell lines MCF-7 and HeLa is tested using Sulforhodamine B assay to reveal their anti-tumor properties. The evaluation of growth inhibition of these complexes is done from their IC50 values for the inhibition of cell growth. The IC50 values are compared with Cisplatin to determine any increase in efficacy.
The seeded cells in 96-well plates are incubated with the complex for 24 h and the assay is performed.
(§3) The data obtained is graphically represented in accompanying FIG. 2.

MCF-7 cells [2] = assay: Sulforhodamine B assay, proliferation of MCF-7 cells; format: cell-based, human; conditions: MCF-7 breast cancer cells, one cell cycle (48 h), SRB
Method: as §1, §2
Method: The effects of present series of palladium N-heterocyclic carbene complexes, such as compounds (1S,2S,5R)-(1-3)b and (1R,2R,5S)-(1-3)b; (1S,2S,5R)-(1, 3)c and (1R,2R,5S)-(1, 3)c on the proliferation of MCF-7 cells after one cell cycle are determined by Sulforhodamine B assay. In particular, 1×10^5 cells/mL are seeded in each well in 96-well plates for 24 h and then incubated without or with different concentrations of these complexes at 37° C. for one cell cycle (48 h). After incubation of cells with the complexes for one cell cycle, cell growth is stopped by the addition of 50% trichloroacetic acid and stained with 0.4% sulforhodamine B dissolved in 1% acetic acid. Unbound dye is removed by washing with 1% acetic acid, and the protein content is determined by measuring absorbance at 520 nm in a Bio-Rad model 680 microplate reader after extracting with 10 mM tris base. IC50 value is calculated as the concentration of the complex that inhibited the proliferation of cells by 50% relative to the untreated control cells. The anticancer activities of the present Pd—NHC compounds are graphically represented in accompanying FIG. 1.
as §3

[3] = tested on: intracellular ROS in MCF-7 cells; assay: Reactive oxygen species (ROS) assay using H2DCFDA, flow cytometry; format: cell-based, human; conditions: MCF-7, 30 μM, 24 h, positive control
Method: Experiment: Reactive oxygen species (ROS) production in cells when treated with (1R,2R,5S)-1c, was estimated by ROS assay using 2′,7′-dichlorodihydrofluorescein diacetate (H2DCFDA). MCF-7 cells (5 mL) were seeded in 60 mm cell culture dishes at a density of 1.5×10^5 cells/mL. After cell attachment, they were incubated with 4 and 8 μM (1R,2R,5S)-1c for 24 h. Cells treated with 30 μM hydrogen peroxide was used as a positive control. Following 24 h of incubation, the cells were processed and analyzed using flow cytometry. The percentage of DCFH-DA positive MCF-7 cells in the absence and presence 4 and 8 μM (1R,2R,5S)-1c was determined by flow cytometry. 30 μM H2O2 was used as a positive control. Data are average of three independent set of experiments and ±indicates S.D.

HCT 116 cell lines = conditions: HCT 116, MTT, 72 hours, Haque et al. Metallomics 2013; read-out: HCT-116 (IC50 value), prior art (b); cited from earlier work
HeLa cells [4] = conditions: one cell cycle, SRB, Ghosh et al. JACS 2007, read-out: HeLa (IC50 value), prior art (a); cited from earlier work
HCT 116 cells = conditions: HCT 116, one cell cycle, SRB, Ghosh et al. JACS 2007; read-out: HCT-116 (IC50 value), prior art (a); cited from earlier work
MCF-7 cells [5] = assay: Live dead assay by flow cytometry using propidium iodide; format: cell-based, human; conditions: MCF-7, 4 μM, 48 h
Method: MCF-7 cells (5 mL) were seeded in 60 mm cell culture dishes at a density of 1.5×10^5 cells/mL. Cells were incubated with 4 and 8 μM (1R,2R,5S)-1c for 48 h for live dead assay. After the required incubation, cells were processed and analyzed by flow cytometry. Percentage of live and dead MCF-7 cells in the absence and presence of 4 and 8 μM (1R,2R,5S)-1c and 4 μM cisplatin was determined by flow cytometry using propidium iodide (PI).

MCF-7 cells [6] = conditions: MCF-7, one cell cycle, SRB, Ghosh et al. JACS 2007; read-out: MCF-7 (IC50 value), prior art (a); cited from earlier work

IC50 (MCF-7 cells [2]; read-out: IC50 (μM), MCF-7): 2.3 ± 1 µM
Molecule: trans-[1-(1R)-menthyl-4-(ethyl)-1,2,4-triazol-5-ylidene]2PdBr2 [(1R,2R,5S)-1b]

IC50 (MCF-7 cells [2]; read-out: IC50 (μM), MCF-7): > 10 µM
Molecule: trans-[1-(1R)-menthyl-4-(benzyl)-1,2,4-triazol-5-ylidene]2Pd(OCOCF3)2 [(1R,2R,5S)-3c]

IC50 (MCF-7 cells [2]; read-out: IC50 (μM), MCF-7): ~10 µM
Molecule: trans-[1-(1S)-menthyl-4-(allyl)-1,2,4-triazol-5-ylidene]2PdBr2 [(1S,2S,5R)-2b]

IC50 (MCF-7 cells [2]; read-out: IC50 (μM), MCF-7): 2.2 ± 0.1 µM
Molecule: trans-[1-(1S)-menthyl-4-(ethyl)-1,2,4-triazol-5-ylidene]2PdBr2 [(1S,2S,5R)-1b]

IC50 (MCF-7 cells [2]; read-out: IC50 (μM), MCF-7): > 10 µM
Molecule: trans-[1-(1S)-menthyl-4-(benzyl)-1,2,4-triazol-5-ylidene]2PdBr2 [(1S,2S,5R)-3b]

Second part, the molecule before the results:

Molecule: trans-[1-(1S)-menthyl-4-(ethyl)-1,2,4-triazol-5-ylidene]2Pd(OCOCF3)2 [(1S,2S,5R)-1c]
IC50 (HeLa cells [1]; listed as drawing 40): 2.6 ± 1.6 µM
IC50 (HeLa cells [1]; listed as drawing 47): 2.6 ± 1.6 µM
IC50 (MCF-7 cells [2]; read-out: IC50 (μM), MCF-7): 0.7 ± 0.005 µM
IC50 (MCF-7 cells [2]; unit nM printed in cell or sentence, read-out: IC50, MCF-7 (values given in nM)): 0.7 ± 0.005 µM

Molecule: trans-[1-(1R)-menthyl-4-(benzyl)-1,2,4-triazol-5-ylidene]2PdBr2 [(1R,2R,5S)-3b]
IC50 (MCF-7 cells [2]; read-out: IC50 (μM), MCF-7): > 10 µM

Molecule: OO [Compound H2O2, hydrogen peroxide, reference compound]
% of DCFH-DA positive cells [3]: 72 ± 4%

Molecule: CCCCN1C=CN(Cc2ccccc2)[CH]1[Pd]([Cl])([Cl])[CH]1N(CCCC)C=CN1Cc1ccccc1 (stereo not shown) [Compound 9]
IC50 (HCT 116 cell lines): 6.6 µM

Molecule: C=CCN1C=CN(CCCC)[CH]1[Pd]([Cl])([Cl])[CH]1N(CC=C)C=CN1CCCC (stereo not shown) [Compound 8]
IC50 (HCT 116 cell lines): 26.5 µM

Molecule: N.N.[Cl][Pt][Cl] [cisplatin, cis-diammine-dichloroplatinum (II), reference compound]
IC50 (HeLa cells [1]): 8.5 ± 0.7 µM
IC50 (MCF-7 cells [2]; read-out: IC50 (μM), MCF-7): 14.9 ± 0.4 µM
IC50 (HeLa cells [4]): 8 µM
IC50 (HCT 116 cells): 16 µM
Dead % (MCF-7 cells [5]): 8 ± 2%
Live % (MCF-7 cells [5]): 93 ± 4%
IC50 (MCF-7 cells [6]): 15 µM

Molecule: trans-[1-(1S)-menthyl-4-(benzyl)-1,2,4-triazol-5-ylidene]2Pd(OCOCF3)2 [(1S,2S,5R)-3c]
IC50 (MCF-7 cells [2]; read-out: IC50 (μM), MCF-7): > 10 µM

Molecule: trans-[1-(1R)-menthyl-4-(allyl)-1,2,4-triazol-5-ylidene]2PdBr2 [(1R,2R,5S)-2b]
IC50 (MCF-7 cells [2]; read-out: IC50 (μM), MCF-7): ~10 µM
